Measurements: paper PMC7482066, “Unstable Mechanisms of Resistance to Inhibitors of Escherichia coli Lipoprotein Signal Peptidase” (mBio, 2020)
In brackets after ≈: the same amount, converted by molar mass.

Experiments:
A. baumannii 17978 = assay: MIC; format: cell-based; details: A. baumannii ATCC 17978; in words
Method: (§1) MICs of compounds in each strain were determined in cation-adjusted Mueller-Hinton II (MHII) broth or MHII agar according to the Clinical and Laboratory Standards Institute protocol (CLSI 2006). To measure the effect of protein binding on activity, MIC assays were performed in the presence of 50% heat-inactivated human serum. The serum killing assay was performed as described previously ([43]). FOR assays and growth on plates containing G0790 were always performed on MHII agarose plates.

E. coli CFT073 Δlpp = assay: MIC; format: cell-based
Method: as §1

E. coli MG1655 ΔtolC = assay: MIC; format: cell-based; details: E. coli MG1655 WT vs MG1655 ΔtolC
Method: as §1

E. coli CFT073(pBADlspA) = assay: MIC; format: cell-based; details: in words
Method: as §1

E. coli CFT073 imp4213 = assay: MIC; format: cell-based; details: in words
Method: as §1

S. aureus USA300 = assay: MIC; format: cell-based; details: in words
Method: as §1

[1] = tested on: G0790-resistant CFT073 Δlpp; assay: MIC against G0790-resistant CFT073 Δlpp strains; format: cell-based, E. coli; details: non-lspA_GA
Method: as §1
Frequencies of resistance (FORs) of G0790 were determined for E. coli CFT073, E. cloacae (ATCC 13047), and K. pneumoniae (ATCC 700603) as previously published ([70]). To determine the FOR, 3 to 4 colonies of the strain to be tested were picked from a fresh plate and diluted to an optical density at 600 nm (OD600) of 0.00001 in 1 ml of cation-adjusted MHBII. Ten independent 5-ml cultures in MHBII were prepared by inoculating 5 μl (approximately 1 × 10^3 CFU) and incubated at 37°C for 18 h. […] In parallel, CFU from each independent culture was measured by spotting 10-fold serial dilutions on MHII agar plates and incubated at 37°C for 18 h. Colonies were counted at days 1, 2, and 3 postinoculation. FOR was calculated as the ratio of the total number of resistant colonies relative to the total CFU plated. […]

[2] = tested on: G0790-resistant E. coli CFT073; assay: MIC against G0790-resistant CFT073 strains; format: cell-based
Method: as §1
Frequencies of resistance (FORs) of G0790 were determined for E. coli CFT073, E. cloacae (ATCC 13047), and K. pneumoniae (ATCC 700603) as previously published ([70]). To determine the FOR, 3 to 4 colonies of the strain to be tested were picked from a fresh plate and diluted to an optical density at 600 nm (OD600) of 0.00001 in 1 ml of cation-adjusted MHBII. Ten independent 5-ml cultures in MHBII were prepared by inoculating 5 μl (approximately 1 × 10^3 CFU) and incubated at 37°C for 18 h. The bacteria were pelleted by centrifugation at 4000 × g at 4°C for 15 min and resuspended in 0.5 ml fresh MHBII. Two hundred fifty microliters of the bacterial suspension was plated evenly on MHII agarose plates containing globomycin or G0790 at a final concentration of 4× and 8× MIC. In parallel, CFU from each independent culture was measured by spotting 10-fold serial dilutions on MHII agar plates and incubated at 37°C for 18 h. Colonies were counted at days 1, 2, and 3 postinoculation. FOR was calculated as the ratio of the total number of resistant colonies relative to the total CFU plated. For strains that had no resistant colonies growing on plates, the p0 method was used to calculate the FOR (FOR = m/total CFU plated, where m = −ln p0 and p0 is the proportion of cultures with no mutants; 0.7 ≥ p0 ≥ 0.1), as described previously ([71]). Colonies were picked and resuspended in 30 μl MHBII broth medium, and 10 μl was plated on an MHII agar plate containing G0790 to be used to determine the MIC. Of the remaining 20 μl, half was used to inoculate 1.5 ml MHBII broth medium containing G0790 and grown at 37°C for 18 h to generate cell lysates for Western blot analysis, isolate genomic DNA (gDNA) for whole-genome sequencing, and for frozen glycerol stocks.

G0790-resistant CFT073 = assay: MIC after in vitro passaging of G0790-resistant strains; format: cell-based, E. coli; details: in words
Method: This bacterial culture is referred to as passage 1 (P1). […] For each passage, MICs were measured and cell lysates and genomic DNA were prepared for Western blot and whole-genome sequencing analyses, respectively.

For CCCCCC[C@H]1OC(=O)CNC(=O)[C@H]([C@H](C)O)NC(=O)[C@H](CN)NC(=O)[C@H](C2CCCCC2)NC(=O)[C@H](CCC)N(C)C(=O)[C@@H]1C [G0790], the “MIC against A. baumannii compared to GBM” value (A. baumannii 17978) was “modestly decreased MIC”, the MIC (E. coli CFT073 Δlpp; CFT073 Δlpp parent, resistant-strain study) was 19.5 µg/mL (≈ 29.2 µM) and the “Susceptibility of CFT073 Δlpp relative to parental WT” value (E. coli CFT073 Δlpp; in words) was “more resistant to G0790 than the parental WT strain”. For the same compound, the “WT/tolC MIC shift” value (E. coli MG1655 ΔtolC) was roughly 31 fold, the “Effect of LspA overexpression or lpp deletion on inhibition of WT CFT073 and CFT073 imp4213” value (E. coli CFT073(pBADlspA)) was “decreased upon LspA overexpression or lpp deletion” and the “Activity against CFT073 imp4213 relative to GBM” value (E. coli CFT073 imp4213) was “more active than GBM”. For the same compound, the “Activity against S. aureus USA300” value (S. aureus USA300) was “no increased activity”, the MIC ([1]; CFT073 Δlpp 4×-R1, lspA_GA) was 78 µg/mL (≈ 117 µM) and the MIC ([1]; CFT073 Δlpp 4×-R2, lspA_GA) was 78 µg/mL (≈ 117 µM). The MIC ([2]; CFT073 4×-R1, ISEc10-istB insertion (3′ of lpp)) was 19.5 µg/mL (≈ 29.2 µM), the MIC ([2]; CFT073 4×-R2, Lpp p.Asp54fs, Non-lspA_GA) was 19.5 µg/mL (≈ 29.2 µM) and the MIC ([2]; CFT073 4×-R3, lspA_GA) was 19.5 µg/mL (≈ 29.2 µM). It also gave an MIC ([2]; CFT073 4×-R4, lpp deletion, Non-lspA_GA) of 19.5 µg/mL (≈ 29.2 µM), an MIC ([2]; CFT073 4×-R6, ISEc10-istB insertion (3′ of lpp)) of 39 µg/mL (≈ 58.5 µM) and an MIC ([2]; CFT073 4×-R7, ISEc10-istB insertion (3′ of lpp), Non-lspA_GA) of 39 µg/mL (≈ 58.5 µM). For the same compound, the MIC ([2]; CFT073 4×-R9, lpp deletion) was 19.5 µg/mL (≈ 29.2 µM), the MIC ([2]; CFT073 4×-R10, lspA_GA) was 19.5 µg/mL (≈ 29.2 µM) and the MIC ([2]; CFT073 8×-R1, lspA_GA) was 19.5 µg/mL (≈ 29.2 µM). It also gave an MIC ([2]; CFT073 8×-R3, 5′ lpp deletion, Non-lspA_GA) of 39 µg/mL (≈ 58.5 µM), an MIC ([2]; CFT073 8×-R4, lpp deletion) of 39 µg/mL (≈ 58.5 µM) and an MIC ([2]; CFT073 8×-R5, ISEc10-istB insertion (5′ of lpp), lspA_GA) of 39 µg/mL (≈ 58.5 µM). The MIC ([2]; CFT073 8×-R6, lpp deletion, Non-lspA_GA) was 19.5 µg/mL (≈ 29.2 µM), the “MIC after passaging in the absence of G0790, lspA_GA mutants” value (G0790-resistant CFT073; 4×-R3, 4×-R10, 8×-R1, 8×-R5, 3 days) was “comparable to the MIC of the parental WT strain” and the “Phenotype after passaging in the absence of G0790, 8×-R5” value (G0790-resistant CFT073; 8×-R5 (GA and ISEc10-istB insertion upstream of lpp)) was “reverted to the WT phenotype”. The “Resistance after passaging in the absence of G0790, lpp insertion (downstream) or lpp deletion strains” value (G0790-resistant CFT073; 3 days) was “maintained resistance to G0790”.
